One assay addresses T1, L-selectin (Homo sapiens, UniProt P14151).
T1 sequence (P14151 39-372): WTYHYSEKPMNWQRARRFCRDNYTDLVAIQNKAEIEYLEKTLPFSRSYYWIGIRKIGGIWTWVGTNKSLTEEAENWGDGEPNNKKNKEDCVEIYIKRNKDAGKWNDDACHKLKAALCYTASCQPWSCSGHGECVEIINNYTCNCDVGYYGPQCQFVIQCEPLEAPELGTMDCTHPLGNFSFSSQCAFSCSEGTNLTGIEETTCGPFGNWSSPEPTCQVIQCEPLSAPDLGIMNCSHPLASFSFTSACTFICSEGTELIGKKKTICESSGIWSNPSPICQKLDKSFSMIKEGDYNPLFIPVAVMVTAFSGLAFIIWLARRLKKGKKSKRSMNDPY
The note with it: cited from earlier work.

The next assay has as its target T2, human α-thrombin (Homo sapiens, UniProt P00734).
T2 construct: screened against immobilized human α-thrombin; purchased Sigma Chemical Co
The note with it: affinity label; cited from earlier work.

Assay [1] addresses T3, cholera toxin B subunit (Vibrio cholerae serotype O1, UniProt P01556). The note with it: cited from earlier work.
Assay [2] addresses T3, cholera toxin B subunit. It counts as binding.

The values that follow come from patent US20060228754A1 (priority 1998, published 2006).

T3 sequence (P01556 22-124 limits assumed): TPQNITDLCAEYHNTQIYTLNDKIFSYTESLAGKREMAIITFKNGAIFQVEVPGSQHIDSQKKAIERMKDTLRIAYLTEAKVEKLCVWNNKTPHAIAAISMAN

For the molecule `O=P(O)(O)O[C@H]1[C@H](OP(=O)(O)O)[C@@H](OP(=O)(O)O)[C@H](OP(=O)(O)O)[C@@H](OP(=O)(O)O)[C@H]1OP(=O)(O)O` [phytic acid], the Kd at L-selectin was 1000 nM.

With fPR-chloromethyl ketone, the Kd at human α-thrombin was approximately 50 nM.

As to `CC(=O)N[C@H]1[C@H](O[C@@H]2[C@H](O[C@]3(C(=O)O)C[C@H](O)[C@@H](NC(C)=O)[C@H]([C@H](O)[C@H](O)CO)O3)[C@@H](O)[C@H](O[C@H]3[C@H](O)[C@@H](O)[C@H](O)O[C@@H]3CO)O[C@@H]2CO)O[C@H](CO)[C@H](O)[C@@H]1O[C@@H]1O[C@H](CO)[C@H](O)[C@H](O)[C@H]1O` [compound 7, GM1 oligosaccharide], on cholera toxin B subunit [1], the Kd was approximately 100 nM. The molecule also returned a break through volume at cholera toxin B subunit [2] of approximately 300 µL.

`COC(=O)CCCCCCCCOC1OC(COC2OC(CO)C(O)C(O)C2O)C(O)C(OC2OC(CO)C(O)C(O)C2O)C1O` (stereo not drawn) [compound 3, αMan(1-3)[αMan(1-6)]βMan-OGr]: the “break through (in words)” value on cholera toxin B subunit [2] is “broke through in the void volume”.

Take `CC(=O)NC1C(O)CC(OCCOC2OC(CO)C(O)C(OC3OC(CO)C(O)C(O)C3O)C2NC(C)=O)(C(=O)O)OC1C(O)C(O)CO` (stereo not drawn) [compound 8, βGal(1-3)βGalNAc(1-)-OCH2CH2O-(-2)αNeu5Ac]: at cholera toxin B subunit [2], the break through time entry was “about 11 min”.

One may read the Kd as the free concentration of one partner at which half of the binding sites on the other are occupied at equilibrium, for simple one-to-one binding.
